Results reported in patent publication US20250154547A1, “REAGENTS AND METHODS USED IN DEPROTECTION OF 3'-O-AMINO POLYNUCLEOTIDES” (priority 2023, published 2025).
Like-named read-outs stand apart in the source and are kept apart here.

Experiments:
[1] = test system: dTTP-3′-ONH2
Protocol: 1 mM solution of dTTP-3′-ONH2 (100 uL) taken in 50 mM sodium acetate (pH 5.0), 50 mM sodium phosphate (pH 6.0), 50 mM sodium phosphate (pH 7.0) or 50 mM sodium bicarbonate (pH around 8, i.e. 8.25) buffers was agitated with ThermoMixer in sealed Eppendorf tubes with 2 eq of carbonylbisphosphonate as prepared in Example 1, at 25° C. After 5 min/20 min/60 min of incubation the corresponding reaction mixture had been quenched with 5-fold excess of hydroxylamine hydrochloride in 100 μL of deionized water followed by excess of aqueous 5% acetone. Thereby, non-reacted residual dTTP-ONH2 was converted to an inert acetoxime form—dTTP-OX. The quenched reaction mixtures were analyzed with reversed-phase HPLC as shown on FIG. 3 with the following conditions: C18 Xterra 3.5 μm, 4.6×50 mm column (Waters); Buffer A: 50 mM TEAB (pH 8.5), Buffer B: 100% ACN. Gradient elution method: flow rate: 1.5 mL/min, 0-2 min—0% ACN B, 5.3 min—10% ACN, 8 min—30% ACN, 8-10 min—100% ACN.
After 5 min/20 min/60 min of incubation the corresponding reaction mixture had been quenched with 100 μL of 5% acetone in 100 mM sodium bicarbonate buffer (pH around 8, i.e. 8.25). Thereby, non-reacted residual dTTP-ONH2 was converted to an inert acetoxime form—dTTP-OX. The quenched reaction mixtures were analyzed with reversed-phase HPLC as shown on FIG. 4 with the following conditions: C18 Xterra 3.5 μm, 4.6×50 mm column (Waters); Buffer A: 50 mM TEAB (pH 8.5), Buffer B: 100% ACN. Gradient elution method: flow rate: 1.5 mL/min, 0-2 min—0% ACN B, 5.3 min—10% ACN, 8 min—30% ACN, 8-10 min—100% ACN.

[2] = test system: dATP-3′-ONH2, dTTP-3′-ONH2, dCTP-3′-ONH2 or dGTP-3′-ONH2; assay: Deprotection study with various 3′-O-NH2 nucleotides (96-well screening, RP-HPLC); settings: for pH of highest cleavage rate (optimal pH): 2 mM agent, 1 mM dNTP-3′-ONH2, pH 5.0-8.25
Protocol: The screening tests were performed in a 96-well plate with a reaction volume of 100 uL. Nucleoside triphosphate (dATP-3′-ONH2, dTTP-3′-ONH2, dCTP-3′-ONH2 or dGTP-3′-ONH2) were taken at 1 mM final concentration in one of four 50 mM buffers (A: sodium acetate pH 5.0, B: sodium phosphate pH 6.0, C: sodium phosphate 7.0, D: sodium bicarbonate pH around 8, i.e. 8.25). Tetrasodium carbonylbisphosphonate was added to the dNTPs solutions at 2 mM final concentration and incubated during 5, 20 or 60 mins prior to quenching with 2× concentration of hydroxylamine hydrochloride. The 96-well plate were agitated with Thermomixer at 25° C. or 40° C. The catalytic effect of magnesium on cleavage rate was also investigated. For this purpose, the same experiments were performed in the presence of 20 mM magnesium sulfate. Prior to HPLC analysis reaction mixtures were additionally quenched with acetone to convert 3′-ONH2 to acetoxime form. The samples were analyzed by RP-HPLC with gradual gradient of acetonitrile in 50 mM TEAB buffer (pH 8.5). The cleavage rate was determined based on the ratio between dNTP-3′-OH and dNTP-3′-acetoxime.
Xterra RP C18 Column: 4.6*50 mm, (3.5 um silica), Buffer A: 50 mM TEAA (pH 7.0), Buffer B: 100% ACN. Method: 0-2 min—0% ACN B, 6 min—10% ACN, 8 min—30% ACN, 8-10 min—100% ACN. Flowrate: 1.5 mL/min, no loop insert.

With `CC(=O)P(=O)(O)O` [acetylphosphonic acid, Acetylphosphonic acid] the “conversion of 3′-ONH2 to 3′-OH” value ([1]; 2 eq, 60 minutes, pH 6 or 7, 25° C.) was “about 60%”.

In the case of `O=C(P(=O)(O)O)P(=O)(O)O` [carbonylbisphosphonate, Tetrasodium Carbonylbisphosphonate], the “pH of highest cleavage rate (optimal pH)” value [2] is reported as “around 5”, the “pH of highest cleavage rate (optimal pH)” value ([2]; listed as carbonyl bisphosphonate) is reported as 5.0 and the “Mg (II) impact on cleavage yield” value ([2]; 20 mM magnesium sulfate) is reported as “Magnesium markedly facilitates the cleavage yield at higher pH”. For the same compound, the “conversion of 3′-ONH2 to 3′-OH” value ([1]; 2 eq deprotecting agent, pH 5, 5 min, 25° C., 1 mM dTTP-3′-ONH2) was 100%.

`O=NO` [sodium nitrite, reference compound] was tested, and the “conversion to dTTP-OH” value ([1]; pH 5) was “about 80%” and the “reaction speed with oxyamines compared with carbonylbisphosphonate” value ([1]; pH 5) was “several times slower”.
